Read-outs that look alike come from different tables or passages of the source.
Experiments:
[1] = target: T1, murine ramp 1/C1ins− receptor (Mus musculus, UniProt Q60755+Q9WTJ5); assay: Radioligand binding and displacement of [3H]amylin in L6 myoblasts co-transfected with murine ramp 1 and C1ins−; details: 10 nM radioligand, FIG. 8D
T1 construct: expressed in transfected cells; host or cells: L6 myoblasts (ATCC), transient co-transfection of pcDNA3.1 plasmids
T1 sequence (Q60755 42-496 isoform Q60755-2 limits assumed): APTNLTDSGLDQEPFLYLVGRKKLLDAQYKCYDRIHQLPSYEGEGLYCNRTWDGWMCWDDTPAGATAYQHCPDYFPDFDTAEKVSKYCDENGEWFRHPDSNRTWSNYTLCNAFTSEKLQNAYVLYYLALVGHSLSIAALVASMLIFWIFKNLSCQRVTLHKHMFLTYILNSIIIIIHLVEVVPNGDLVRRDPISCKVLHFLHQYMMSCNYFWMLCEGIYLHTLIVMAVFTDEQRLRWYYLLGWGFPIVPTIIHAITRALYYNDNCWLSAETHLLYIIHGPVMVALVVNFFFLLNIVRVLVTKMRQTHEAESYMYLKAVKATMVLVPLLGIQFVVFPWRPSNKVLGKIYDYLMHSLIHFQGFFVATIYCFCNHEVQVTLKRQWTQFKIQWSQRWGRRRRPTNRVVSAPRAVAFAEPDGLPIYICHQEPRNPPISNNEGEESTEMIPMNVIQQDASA
T1 sequence (Q9WTJ5 27-148 partner): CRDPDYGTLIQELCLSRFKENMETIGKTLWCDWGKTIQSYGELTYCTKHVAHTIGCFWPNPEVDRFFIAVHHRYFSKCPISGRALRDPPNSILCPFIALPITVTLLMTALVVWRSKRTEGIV

[2] = tested on: soleus muscle; assay: cAMP content of isolated soleus muscle from high fat-fed rats; assay type: cell-based, rat
Experimental: Soleus muscle preparation. All experiments were performed according to protocols approved by the Institutional Animal Ethics Committee. 5-6 week-old male Wistar rats (160 g) were kept on a 12:12-h light/dark cycle, and fed and watered ad libitum. Animals were anaesthetised with 50 mg/kg Nembutal (pentobarbitone sodium), then sacrificed by cervical dislocation. Soleus muscles were dissected under oxygenated KHB (118 mM NaCl, 4.75 mM KCl, 1.2 mM MgSO4, 24.8 mM NaHCO3, 1.2 mM KH2PO4, 2.54 mM CaCl2, 10 mM glucose, pH 7.4) and teased into halves, then incubated as described below.
For the measurement of cAMP in muscle, isolated soleus strips were incubated with stated concentrations of peptides, then lyophilized and deproteinized. Each strip was placed in 400 μl of 0.5 M HClO4 with 5 mM EDTA (phosphodiesterase inhibitor) and sonicated three times in 20 s bursts. Tubes were heated for 3-5 min in boiling water to coagulate protein, then centrifuged (12,000 g, 4° C., 2 min). Supernatant (300 μl) was taken and the pH adjusted to 7.0 with 75 μl of 2 M NH4OH. The samples were refrigerated (4° C., 2 h) to precipitate proteins, then centrifuged under the same conditions as above and 50 μl taken for cAMP measurement.

[3] = tested on: Wistar rats; assay: Serum hormones and blood metabolites following acute CGRP infusion in anaesthetised normal-fed rats; assay type: in vivo, rat; details: end vs commencement of infusion
Experimental: Surgery. Experiments were performed on male Wistar rats. Animals were randomly assigned to experimental groups as outlined below. Induction and maintenance of surgical anesthesia was by 3-5% halothane and 2L oxygen. An initial blood sample was taken from a tail artery for measurement of baseline levels of blood glucose and lactate, electrolyte, acid base and oxygen status and serum levels of free fatty acids, triglyceride and cholesterol. Immediately following this, the trachea was cannulated and the animal ventilated at 60-70 breaths.min-1 with air supplemented with O2. The respiratory rate and end-tidal pressure (10-15 cmH2O) were adjusted to maintain end-tidal CO2 at 35-40 mmHg. Body temperature was maintained at 37° C. throughout surgery and the experiment by a heating pad. The carotid artery and jugular vein were cannulated with a solid-state blood pressure transducer and a saline filled PE 50 catheter respectively. For the antagonist infusion studies, surgery was similar to above with the alteration being that both the carotid artery and jugular vein were cannulated with saline filled PE 50 catheters. Fluids (saline or hormone dissolved in saline) were delivered to the jugular vein with a Y-connector to join the two lines. The carotid artery line was connected to a blood pressure transducer. Blood samples were taken from this line at time zero (baseline reading), 30 minutes and every 20 minutes until the end of the experiment at 90 minutes.
Infusion. […] Blood glucose measurements were taken from tail capillaries at 5-minute intervals throughout the duration of the experiment. At the end of the infusion a terminal blood sample was taken by cardiac puncture and analysed as per the basal sample and also for various metabolites and hormones. Serum and plasma samples were stored at −80° C. until future analysis. Animals were killed by cervical dislocation and harvested tissues (brain, liver, kidney, soleus muscle, extensor digitorum longus muscle, left ventricle, retroperitoneal and epididymal fat pads) snap frozen in liquid N2 and stored at −80° C. until future analysis.

[4] = tested on: soleus muscle; assay: Masoprocol effect on CGRP1-evoked NEFA and triglyceride contents in soleus muscle from high fat-fed rats; assay type: cell-based, rat
Text: Masoprocol, (nordihydroguaiaretic acid), is a lipoxygenase inhibitor, that has been identified as the active component of Creosote bush extracts. Oral administration of this compound lowers serum NEFA and triglyceride concentrations in rats with fructose-induced hypertriglyceridemia (Gowri et al. 2000, Am. J. Physiol. 279: E593-E600), and decrease blood glucose and triglyceride concentrations in a fat-fed/streptozotocin rat model (Reed et al. 1999, Diabetologia 42: 102-106).

[5] = target: CGRP-1 binding sites in rat skeletal muscle membrane; details: rat skeletal muscle membrane preparations, cited from earlier work
[6] = target: binding sites for CGRP in rat liver membranes; details: cited from earlier work
[7] = 1 pM CGRP1, high fat-fed soleus
[8] = 100 nM CGRP1, high fat-fed soleus
[9] = read-out: Kd, high affinity binding site
[10] = read-out: Kd, second binding site

Substance	specific binding of [3H]radioligand to L6 myoblasts co-transfected with ramp 1 and C1ins− [1]	cAMP content, agonist alone ([2]; 1 pM CGRP, control 5.7±0.2)	cAMP content, agonist alone ([2]; 100 nM CGRP1, control 5.7±0.2)	Change in [serum] Triglyceride ([3]; CGRP 60 min, CGRP-(8-37) 90 min, control 0.2)	Change in [serum] FFA ([3]; control −0.1)	Change in Lactate ([3]; heparinised whole blood, control 0.3)	NEFA elevation [4, 7]	soleus triglyceride content (decrement) [4, 7]	NEFA elevation [4, 8]	soleus triglyceride content (decrement) [4, 8]	Kd [5, 9]	Kd [5, 10]	Kd [6, 9]	Kd [6, 10]
Rat amylin	significant increases in specific binding													
rat CGRP-1		8.6 ± 0.4 pmol/mg	9.3 ± 1 pmol/mg	-0.7 mmol/L	0.4 mmol/L	1.7 mmol/L	482 ± 99 nmol/g	1.2 mmol/g	533 ± 114 nmol/g	1.2 mmol/g	~0.037 nM	~6 nM	~0.044 nM	~27 nM
